Molecules are shown by their SMILES.

The target in one assay is NLRP3 inflammasome (Homo sapiens (Human), UniProt Q96P20). As to the kind of experiment: Evaluation of NLRP3 inflammasome inhibitory activity (inhibition of IL-1β production in LPS/Nigericin-stimulated THP1-Null cells). Type of assay: cell-based. The settings on record: IL-1β production in THP1-Null cells, PMA, LPS 1 μg/mL, Nigericin 7.5 μmol/L, AlphaLISA. In a few lines: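 THP1-Null cells primed with 1 μg/mL LPS, then treated with test compound; supernatant IL-1β quantified by AlphaLISA. Inhibition calculated with blank wells as 100% and control wells as 0%.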
Sequence of NLRP3 inflammasome (Q96P20 whole entry): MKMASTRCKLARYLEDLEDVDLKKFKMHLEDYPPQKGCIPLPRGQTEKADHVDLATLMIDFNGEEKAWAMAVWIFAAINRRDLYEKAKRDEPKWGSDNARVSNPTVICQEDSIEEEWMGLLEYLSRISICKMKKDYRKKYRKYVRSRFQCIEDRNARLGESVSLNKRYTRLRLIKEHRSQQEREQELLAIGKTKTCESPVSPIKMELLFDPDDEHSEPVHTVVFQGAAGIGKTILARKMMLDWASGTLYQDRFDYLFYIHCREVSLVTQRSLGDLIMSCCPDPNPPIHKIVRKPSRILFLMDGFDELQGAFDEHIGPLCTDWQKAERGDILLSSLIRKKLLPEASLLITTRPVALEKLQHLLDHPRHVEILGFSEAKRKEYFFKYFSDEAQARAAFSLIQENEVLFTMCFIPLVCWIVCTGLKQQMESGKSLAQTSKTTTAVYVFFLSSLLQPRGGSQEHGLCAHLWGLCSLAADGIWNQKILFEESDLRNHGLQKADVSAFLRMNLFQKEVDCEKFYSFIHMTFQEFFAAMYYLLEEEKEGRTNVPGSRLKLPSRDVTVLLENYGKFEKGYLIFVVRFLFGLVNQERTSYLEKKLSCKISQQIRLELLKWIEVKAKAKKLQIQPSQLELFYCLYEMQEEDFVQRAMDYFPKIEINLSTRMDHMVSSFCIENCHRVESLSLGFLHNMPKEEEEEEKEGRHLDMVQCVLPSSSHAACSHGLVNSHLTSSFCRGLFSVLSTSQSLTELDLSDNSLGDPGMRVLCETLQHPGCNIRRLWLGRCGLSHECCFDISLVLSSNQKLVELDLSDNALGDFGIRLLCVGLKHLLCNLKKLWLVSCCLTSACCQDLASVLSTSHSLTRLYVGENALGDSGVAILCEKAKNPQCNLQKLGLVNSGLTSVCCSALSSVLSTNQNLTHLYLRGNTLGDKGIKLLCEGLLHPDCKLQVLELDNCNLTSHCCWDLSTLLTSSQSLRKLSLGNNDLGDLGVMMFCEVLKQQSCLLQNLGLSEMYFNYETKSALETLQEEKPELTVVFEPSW
Background: Alpha assays give light when donor and acceptor beads are brought close together.
What is called IC50 is the concentration needed to halve the response being measured. Consider `Cc1cc(Br)ccc1-n1cc2c(=O)[nH]c(N3CC4(COC4)C3)nc2n1` [Example 191], for which it took 35 nM to reach half-maximal inhibition (IC50). That is a double-digit nanomolar value.

As to `COC[C@@H]1CCN(c2nc3nn(-c4ccc(Br)cc4C)cc3c(=O)[nH]2)CCO1` [Example 192], the IC50 turned out to be 32 nM. The IC50 values of the last two molecules are within 1.5-fold of each other. `COC[C@H]1CCN(c2nc3nn(-c4ccc(Br)cc4C)cc3c(=O)[nH]2)CCO1` [Example 193] gave an IC50 of 42 nM. For the molecule `Cc1cc(Br)cc(C)c1-n1cc2c(=O)[nH]c(N3C[C@@H]4C[C@H]3CO4)nc2n1` [Example 195], the IC50 came out at 6.8 nM. Regarding `O=c1[nH]c(N2CCOCC2)nc2nn(-c3ccc(Br)cc3C3CC3)cc12` [Example 196], the IC50 is 11 nM.

Consider `Cc1cc(Br)cc(C)c1-n1cc2c(=O)[nH]c(N3C[C@H]4C[C@@H]3CO4)nc2n1` [Example 197], for which half-maximal inhibition (IC50) required 8 nM. The IC50 values of the last two molecules are within 1.5-fold of each other. Regarding `Cc1cc(Br)cc(C)c1-n1cc2c(=O)[nH]c(N3CC(F)C3)nc2n1` [Example 198], it took 8 nM to reach half-maximal inhibition (IC50). Same read-out and setting: the figure for `Cc1cc(Br)cc(C)c1-n1cc2c(=O)[nH]c(N3CC4(CC(O)C4)C3)nc2n1` [Example 199] is 6.8 nM; for `Cc1cc(OC(F)(F)F)cc(C)c1-n1cc2c(=O)[nH]c(N3CCOCC3)nc2n1` [Example 200] it is 29 nM. As to `O=c1[nH]c(N2CCOCC2)nc2nn(-c3ncc(C(F)(F)F)cc3Br)cc12` [Example 201], half-maximal inhibition (IC50) required 190 nM. As to `Cc1cc(C2CC2)ncc1-n1cc2c(=O)[nH]c(N3CCOCC3)nc2n1` [Example 202], the IC50 was determined as 640 nM. In turn, `COc1cc(Cl)ccc1-n1cc2c(=O)[nH]c(N3CCCC3)nc2n1` [Example 205] registered an IC50 of 32 nM. On to `O=c1[nH]c(N2CCOCC2)nc2nn(-c3ccc(Br)cc3OC(F)(F)F)cc12` [Example 206], for which the IC50 was 12 nM. Consider `Cc1cc(C2CC2)cc(C)c1-n1cc2c(=O)[nH]c(N3C[C@@H]4C[C@H]3CO4)nc2n1` [Example 207], for which the IC50 is 5.9 nM. Consider `O=c1[nH]c(N2CCOCC2)nc2nn(-c3ccc(C4CC4)cc3OC(F)(F)F)cc12` [Example 208], for which the IC50 was 14 nM.

For `Cc1cc(C2CC2)cc(C)c1-n1cc2c(=O)[nH]c(N3C[C@H]4C[C@@H]3CO4)nc2n1` [Example 209, 6-((1R,4R)-2-oxa-5-azabicyclo[2.2.1]heptan-5-yl)-2-(4-cyclopropyl-2,6-dimethylphenyl)-2,5-dihydro-4H-pyrazolo[3,4-d]pyrimidin-4-one], the IC50 worked out at 5.1 nM. `O=c1[nH]c(N2CCOCC2)nc2nn(-c3ccc(C4CC4)cc3C3CC3)cc12` [Example 210] came in with an IC50 of 7.3 nM. Molecule `Cc1cc(Br)cc(C)c1-n1cc2c(=O)[nH]c(N3CC4CC(C3)O4)nc2n1` [Example 211] came in with an IC50 of 4.6 nM. Same read-out and setting: the figure for `O=c1[nH]c(N2CCCC2)nc2nn(-c3ccc(Cl)cc3C(F)(F)F)cc12` [Example 218] is 5.7 nM. The molecule `Cc1cc(Br)cc(C)c1-n1cc2c(=O)[nH]c(N3C4CC3CN(S(C)(=O)=O)C4)nc2n1` [Example 221] showed an IC50 of 25 nM.

In turn, `Cc1cc(Br)cc(C)c1-n1cc2c(=O)[nH]c(N3CC4CC(C3)N4S(C)(=O)=O)nc2n1` [Example 222] returned an IC50 of 18 nM. In the case of `Cc1cc(Br)cc(C)c1-n1cc2c(=O)[nH]c(NCC3CC3)nc2n1` [Example 228], the IC50 amounted to 7.7 nM.

In turn, `[2H]C([2H])([2H])Nc1nc2nn(-c3c(C)cc(Br)cc3C)cc2c(=O)[nH]1` [Example 229] had a half-inhibitory concentration (IC50) of 9.4 nM.

In turn, `[2H]C([2H])([2H])Nc1nc2nn(-c3c(C)cc(C4CC4)cc3C)cc2c(=O)[nH]1` [Example 231] came in with an IC50 of 7.7 nM.

`Cc1cc(C2CC2)cc(C)c1-n1cc2c(=O)[nH]c(N3CC4CC(C3)O4)nc2n1` [Example 232] displayed an IC50 of 6 nM.

Turning to `Cc1cccc(C)c1-n1cc2c(=O)[nH]c(N3CCOCC3)nc2n1` [Example 233], the IC50 worked out at 760 nM.

`CC(C)c1cc(C(F)(F)F)cnc1-n1cc2c(=O)[nH]c(N3CCOCC3)nc2n1` [Example 236] displayed an IC50 of 730 nM. `Cc1cc(C(F)(F)F)cc(C)c1-n1cc2c(=O)[nH]c(N3CCOCC3)nc2n1` [Example 237] showed an IC50 of 23 nM. Consider `O=c1[nH]c(N2CCOCC2)nc2nn(-c3ccc(Br)cc3C(F)(F)F)cc12` [Example 241], for which the IC50 stood at 11 nM. On to `Cc1cc(C2CC2)ccc1-n1cc2c(=O)[nH]c(N3CCOCC3)nc2n1` [Example 242], for which the IC50 is 24 nM. As for `O=c1[nH]c(N2CCOCC2)nc2nn(-c3ccc(Br)cc3C(F)F)cc12` [Example 243], half-maximal inhibition (IC50) was put at 68 nM.

For `O=c1[nH]c(N2CCOCC2)nc2nn(-c3ccc(C4CC4)cc3C(F)F)cc12` [Example 244], the IC50 was 22 nM. Compared with the last molecule, the IC50 is about 3.1-fold lower. On the same count and under the same terms, with `Cc1cc(Br)cc(C)c1-n1cc2c(=O)[nH]c(N3CCN(C)CC3)nc2n1` [Example 246] the figure was 15 nM; with `Cc1cc(C(F)(F)F)cc(C)c1-n1cc2c(=O)[nH]c(N3C[C@H]4C[C@@H]3CO4)nc2n1` [Example 249], 3.3 nM; with `Cc1cc(C(F)(F)F)cc(C)c1-n1cc2c(=O)[nH]c(N3C[C@@H]4C[C@H]3CO4)nc2n1` [Example 250], 8.9 nM. For `COc1cc(C)c(-n2cc3c(=O)[nH]c(N4CCOCC4)nc3n2)c(C)c1` [Example 253], inhibition was half-maximal at 24 nM (IC50). For the molecule `Cc1cc(Br)cc(F)c1-n1cc2c(=O)[nH]c(N3CCOCC3)nc2n1` [Example 254], inhibition was half-maximal at 14 nM (IC50).

For the molecule `Cc1cc(C2CC2)cc(F)c1-n1cc2c(=O)[nH]c(N3CCOCC3)nc2n1` [Example 255], half-maximal inhibition (IC50) required 6.2 nM. Consider `O=c1[nH]c(N2CCOCC2)nc2nn(-c3c(O)cc(C(F)(F)F)cc3Cl)cc12` [Example 257], for which the IC50 was determined as 69 nM.

In turn, `C[C@@H]1COCCN1c1nc2nn(-c3ccc(Br)cc3C(F)(F)F)cc2c(=O)[nH]1` [Example 258] yielded an IC50 of 23 nM. This IC50 is about 3-fold lower than that of the molecule before. `O=c1[nH]c(N2C[C@H]3C[C@@H]2CO3)nc2nn(-c3ccc(Br)cc3C(F)(F)F)cc12` [Example 259]: inhibition was half-maximal at 23 nM (IC50). For `O=c1[nH]c(N2C[C@@H]3C[C@H]2CO3)nc2nn(-c3ccc(Br)cc3C(F)(F)F)cc12` [Example 260], the IC50 is 17 nM. `C[C@@H]1COCCN1c1nc2nn(-c3ccc(C4CC4)cc3C(F)(F)F)cc2c(=O)[nH]1` [Example 261] gave a concentration for half-maximal inhibition (IC50) of 5.5 nM.

`O=c1[nH]c(N2C[C@H]3C[C@@H]2CO3)nc2nn(-c3ccc(C4CC4)cc3C(F)(F)F)cc12` [Example 262]: the IC50 was determined as 9.8 nM.

The molecule `O=c1[nH]c(N2C[C@@H]3C[C@H]2CO3)nc2nn(-c3ccc(C4CC4)cc3C(F)(F)F)cc12` [Example 263] yielded an IC50 of 8.6 nM. On the same count and under the same terms, with `Cc1cc(-n2cc3c(=O)[nH]c(N4CCOCC4)nc3n2)c(C)cc1Cl` [Example 265] the figure was 350 nM.

The same assay, now with this note: IL-1β production in THP1-Null cells; test compound 0.0024 μM.
The term inhibition denotes the change of the read-out against control, counted positive when it falls. A high value points to a response far below the control. `CCNc1nc2nn(-c3c(C)cc(Br)cc3C)cc2c(=O)[nH]1` [Example 227]: 0.0024 µM produced 52% inhibition. As for `Cc1cc(Br)cc(C)c1-n1cc2c(=O)[nH]c(NC3CC3)nc2n1` [Example 230], the inhibition at 0.0024 µM amounted to 60%. `Cc1cc(Br)cc(C)c1-n1cc2c(=O)[nH]c(NC(C)C)nc2n1` [Example 235] yielded an inhibition at 0.0024 µM of 52%.

As for `Cc1cc(C(F)(F)F)cc(C)c1-n1cc2c(=O)[nH]c(N3CCOC[C@H]3C)nc2n1` [Example 251], the inhibition at 0.0024 µM was 65%.

Still in this assay, the particulars now being: IL-1β production in THP1-Null cells; test compound 2.4 μM.
With `O=c1[nH]c(N2CCOCC2)nc2nn(-c3c(Cl)cc(C(F)(F)F)cc3N3CCOCC3)cc12` [Example 256], the inhibition at 2.4 µM is 40%.

Source of the values: patent publication US20240287079A1, “6-AMINOPYRAZOLOPYRIMIDINE COMPOUND AND PHARMACEUTICAL USE THEREOF” (Japan Tobacco Inc., priority 2021, published 2024).
